Laboratory results published in patent US11339130B1 (Blade Therapeutics, Inc., priority 2016, dated 2022).
Where two headings read alike, the source gives them in different places.

How the values were obtained:
Human Calpain 1/NS1 = biological target: T1, Human Calpain 1/NS1 (Homo sapiens, UniProt P07384); assay: Calpain inhibition continuous fluorescence (FRET) assay, Human Calpain 1/NS1; assay type: biochemical; settings: read-out: Human Calpain 1/NS1 IC50
T1 sequence (P07384 1-714): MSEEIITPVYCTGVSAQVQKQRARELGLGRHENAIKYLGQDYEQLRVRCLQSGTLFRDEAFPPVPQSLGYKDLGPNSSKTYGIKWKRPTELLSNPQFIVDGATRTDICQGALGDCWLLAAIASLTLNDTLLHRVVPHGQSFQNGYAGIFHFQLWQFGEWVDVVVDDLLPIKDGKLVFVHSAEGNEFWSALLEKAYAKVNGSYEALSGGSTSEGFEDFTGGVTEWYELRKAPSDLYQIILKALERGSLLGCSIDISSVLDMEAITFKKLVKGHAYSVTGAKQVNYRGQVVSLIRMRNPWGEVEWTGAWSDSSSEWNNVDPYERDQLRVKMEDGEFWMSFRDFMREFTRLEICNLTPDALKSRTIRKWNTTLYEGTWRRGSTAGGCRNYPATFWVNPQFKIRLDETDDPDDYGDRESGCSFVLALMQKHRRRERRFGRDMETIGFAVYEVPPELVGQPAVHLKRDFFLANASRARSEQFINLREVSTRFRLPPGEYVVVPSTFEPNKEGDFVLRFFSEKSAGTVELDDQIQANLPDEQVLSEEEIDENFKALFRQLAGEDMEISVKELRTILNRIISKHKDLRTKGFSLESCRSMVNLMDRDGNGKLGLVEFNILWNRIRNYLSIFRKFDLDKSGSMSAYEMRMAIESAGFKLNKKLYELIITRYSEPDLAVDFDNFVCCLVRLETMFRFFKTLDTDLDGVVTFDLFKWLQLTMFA
T1 sequence (P04632 1-268 partner): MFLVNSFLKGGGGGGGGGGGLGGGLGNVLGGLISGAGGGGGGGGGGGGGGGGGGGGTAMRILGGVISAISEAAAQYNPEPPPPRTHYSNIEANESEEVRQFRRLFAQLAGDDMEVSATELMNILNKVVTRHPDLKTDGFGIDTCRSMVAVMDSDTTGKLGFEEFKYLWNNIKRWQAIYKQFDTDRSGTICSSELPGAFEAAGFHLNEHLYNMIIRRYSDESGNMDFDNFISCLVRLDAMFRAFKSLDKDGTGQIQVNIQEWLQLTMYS
Method in brief: (§1)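 Inhibitors were preincubated with calpain in 50 mM Tris pH 7.5, 100 mM NaCl, 1 mM DTT at 25C. Reactions were started with 5-FAM/QXL 520 FRET peptide substrate plus CaCl2 and read at 490/520 nm for 10 min. IC50s came from 4-parameter fits of slope rates (1-5 min).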

[1] = system: Calpain activity in SH-SY5Y cells; assay: SH-SY5Y + AMC fluorescence assay (Suc-LLVY-AMC substrate); assay type: cell-based; settings: read-out: SH-SY5Y + AMC IC50
[2] = system: Calpain activity in SH-SY5Y cells (SBDP-150); assay: SH-SY5Y Spectrin western blot assay (SBDP-150 breakdown product, A23187-induced); assay type: cell-based; settings: Homo sapiens, SH-SY5Y cells, read-out: SH-SY5Y Spectrin IC50
Human Calpain 2/NS1 = biological target: T2, Human Calpain 2/NS1 (Homo sapiens, UniProt P17655); assay: Calpain inhibition continuous fluorescence (FRET) assay, Human Calpain 2/NS1; assay type: biochemical; settings: read-out: Human Calpain 2/NS1 IC50
T2 sequence (P17655 1-700): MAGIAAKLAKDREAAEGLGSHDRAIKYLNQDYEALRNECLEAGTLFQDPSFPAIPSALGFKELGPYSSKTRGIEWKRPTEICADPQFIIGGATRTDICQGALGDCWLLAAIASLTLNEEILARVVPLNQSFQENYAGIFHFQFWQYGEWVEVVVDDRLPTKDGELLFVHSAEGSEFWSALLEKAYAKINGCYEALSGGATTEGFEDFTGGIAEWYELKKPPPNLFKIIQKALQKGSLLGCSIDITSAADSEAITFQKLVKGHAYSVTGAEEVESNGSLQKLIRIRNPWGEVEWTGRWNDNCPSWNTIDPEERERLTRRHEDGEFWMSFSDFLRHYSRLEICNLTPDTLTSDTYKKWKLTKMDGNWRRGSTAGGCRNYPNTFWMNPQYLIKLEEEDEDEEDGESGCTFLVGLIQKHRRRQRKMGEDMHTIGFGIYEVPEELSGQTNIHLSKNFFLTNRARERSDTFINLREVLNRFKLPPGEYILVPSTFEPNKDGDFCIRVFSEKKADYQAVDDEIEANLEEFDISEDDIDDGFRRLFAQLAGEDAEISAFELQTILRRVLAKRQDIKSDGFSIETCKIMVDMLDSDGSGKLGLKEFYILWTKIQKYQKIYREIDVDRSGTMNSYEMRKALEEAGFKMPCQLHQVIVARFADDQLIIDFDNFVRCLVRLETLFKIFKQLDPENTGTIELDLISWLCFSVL
T2 sequence (P04632 1-268 partner): T1 sequence (P04632 1-268 partner)
Method in brief: as §1

Human Calpain 9/NS1 = biological target: T3, Human Calpain 9/NS1 (Homo sapiens, UniProt O14815); assay: Calpain inhibition continuous fluorescence (FRET) assay, Human Calpain 9/NS1; assay type: biochemical; settings: read-out: Human Calpain 9/NS1 IC50
T3 sequence (O14815 1-690): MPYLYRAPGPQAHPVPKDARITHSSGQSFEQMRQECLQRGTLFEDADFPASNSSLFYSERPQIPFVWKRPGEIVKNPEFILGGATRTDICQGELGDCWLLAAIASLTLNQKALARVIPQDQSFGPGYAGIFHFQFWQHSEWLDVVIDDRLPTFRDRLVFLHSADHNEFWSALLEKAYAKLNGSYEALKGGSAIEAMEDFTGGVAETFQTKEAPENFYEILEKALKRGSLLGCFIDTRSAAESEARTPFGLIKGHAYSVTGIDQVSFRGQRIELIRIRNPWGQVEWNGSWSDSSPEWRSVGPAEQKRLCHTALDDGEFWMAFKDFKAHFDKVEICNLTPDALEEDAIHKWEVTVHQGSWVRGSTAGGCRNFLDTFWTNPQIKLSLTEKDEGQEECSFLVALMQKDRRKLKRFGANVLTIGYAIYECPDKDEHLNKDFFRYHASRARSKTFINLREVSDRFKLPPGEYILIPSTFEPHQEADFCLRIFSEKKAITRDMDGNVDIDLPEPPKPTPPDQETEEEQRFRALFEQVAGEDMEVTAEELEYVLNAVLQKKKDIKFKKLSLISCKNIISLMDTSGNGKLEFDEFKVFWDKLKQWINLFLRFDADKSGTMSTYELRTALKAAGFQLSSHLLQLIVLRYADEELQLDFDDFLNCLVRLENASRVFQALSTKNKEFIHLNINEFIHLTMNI
T3 sequence (P04632 1-268 partner): T1 sequence (P04632 1-268 partner)
Method in brief: as §1

[3] = Column D, A23187-induced SBDP-150
[4] = A23187-induced SBDP-150, western blot

Row | SMILES | IC50 (Human Calpain 1/NS1; Column A) [µM] | IC50 ([1]; Column E) [µM] | IC50 [2, 3] [µM] | IC50 (Human Calpain 2/NS1; Column B) [µM] | IC50 (Human Calpain 9/NS1; Column C) [µM] | IC50 (Human Calpain 1/NS1) [µM] | IC50 [1] [µM] | IC50 [2, 4] [µM] | IC50 (Human Calpain 2/NS1) [µM] | IC50 (Human Calpain 9/NS1) [µM]
1 | Cc1nc(-c2ccc(F)cc2)c(C(=O)N[C@@H](Cc2ccccc2)C(=O)C(N)=O)o1 [Compound 248, (S)—N-(4-amino-3,4-dioxo-1-phenylbutan-2-yl)-4-(4-fluorophenyl)-2-methyloxazole-5-carboxamide] | < 3 | < 10 | < 10 | < 3 | < 3 | – | – | – | – | –
2 | Cn1cc(C(=O)NC(Cc2cc(F)cc(F)c2)C(=O)C(N)=O)c(-c2ccccc2F)n1 (stereo not drawn) [Compound 580, N-(4-amino-1-(3,5-difluorophenyl)-3,4-dioxobutan-2-yl)-3-(2-fluorophenyl)-1-methyl-1H-pyrazole-4-carboxamide] | – | – | – | – | – | < 3 | < 10 | 10 to 25 | < 3 | < 3
3 | Cc1cccc(-c2oncc2C(=O)NC(Cc2ccccc2)C(=O)C(N)=O)c1F (stereo not drawn) [Compound 584, N-(4-amino-3,4-dioxo-1-phenylbutan-2-yl)-5-(2-fluoro-3-methylphenyl)isoxazole-4-carboxamide] | – | – | – | – | – | < 3 | 10 to 25 | < 10 | < 3 | < 3
4 | Cc1cc(C(=O)NC(Cc2ccccc2)C(=O)C(=O)NC2CC2)n(-c2cnccn2)n1 (stereo not drawn) [Compound 454, N-(4-(cyclopropylamino)-3,4-dioxo-1-phenylbutan-2-yl)-3-methyl-1-(pyrazin-2-yl)-1H-pyrazole-5-carboxamide] | – | – | – | – | – | < 3 | < 10 | 10 to 25 | < 3 | 3 to 10
5 | Cn1cc(C(=O)NC(Cc2ccccc2)C(=O)C(N)=O)c(-c2c(F)cccc2F)n1 (stereo not drawn) [Compound 486, N-(4-amino-3,4-dioxo-1-phenylbutan-2-yl)-3-(2,6-difluorophenyl)-1-methyl-1H-pyrazole-4-carboxamide] | – | – | – | – | – | < 3 | < 10 | 10 to 25 | < 3 | < 3
6 | CC[C@@H](C)[C@H](NC(=O)c1cn(C)nc1-c1ccccc1)C(=O)C(N)=O [Compound 333, N-((3S,4R)-1-amino-4-methyl-1,2-dioxohexan-3-yl)-1-methyl-3-phenyl-1H-pyrazole-4-carboxamide] | – | – | – | – | – | < 3 | > 25 | > 25 | < 3 | < 3
7 | NC(=O)C(=O)C(Cc1ccccc1)NC(=O)c1cnoc1-c1ccccc1 (stereo not drawn) [Compound 531, N-(4-amino-3,4-dioxo-1-phenylbutan-2-yl)-5-phenylisoxazole-4-carboxamide] | – | – | – | – | – | < 3 | > 25 | 10 to 25 | < 3 | < 3
8 | Cc1cncc(-c2nn(C(F)F)cc2C(=O)NC(Cc2ccccc2)C(=O)C(N)=O)c1 (stereo not drawn) [Compound 582, N-(4-amino-3,4-dioxo-1-phenylbutan-2-yl)-1-(difluoromethyl)-3-(5-methylpyridin-3-yl)-1H-pyrazole-4-carboxamide] | – | – | – | – | – | < 3 | 10 to 25 | < 10 | < 3 | < 3
9 | Cn1cc(C(=O)NC(CCC(F)(F)F)C(=O)C(N)=O)c(-c2ccccc2)n1 (stereo not drawn) [Compound 422, N-(1-amino-6,6,6-trifluoro-1,2-dioxohexan-3-yl)-1-methyl-3-phenyl-1H-pyrazole-4-carboxamide] | – | – | – | – | – | > 10 | > 25 | > 25 | 3 to 10 | 3 to 10
10 | Cn1cc(C(=O)NC(Cc2ccccc2)C(=O)C(N)=O)c(-c2ccccc2C(F)(F)F)n1 (stereo not drawn) [Compound 513, N-(4-amino-3,4-dioxo-1-phenylbutan-2-yl)-1-methyl-3-(2-(trifluoromethyl)phenyl)-1H-pyrazole-4-carboxamide] | – | – | – | – | – | 3 to 10 | < 10 | > 25 | 3 to 10 | 3 to 10
11 | NC(=O)C(=O)[C@H](Cc1ccccc1)NC(=O)c1conc1-c1ccccn1 [Compound 288, (S)—N-(4-amino-3,4-dioxo-1-phenylbutan-2-yl)-3-(pyridin-2-yl)isoxazole-4-carboxamide] | < 3 | > 25 | > 25 | < 3 | < 3 | – | – | – | – | –
12 | Cc1ccccc1-c1nn(C)cc1C(=O)N[C@@H](Cc1ccccc1)C(=O)C(N)=O [Compound 171, (S)—N-(4-amino-3,4-dioxo-1-phenylbutan-2-yl)-1-methyl-3-(o-tolyl)-1H-pyrazole-4-carboxamide] | < 3 | 10 to 25 | > 25 | 3 to 10 | < 3 | – | – | – | – | –
13 | Cc1cc(C(=O)N[C@@H](Cc2ccccc2)C(=O)C(N)=O)n(-c2ccnc(C)n2)n1 [Compound 244, (S)—N-(4-amino-3,4-dioxo-1-phenylbutan-2-yl)-3-methyl-1-(2-methylpyrimidin-4-yl)-1H-pyrazole-5-carboxamide] | < 3 | < 10 | > 25 | < 3 | < 3 | – | – | – | – | –
14 | Cn1cc(C(=O)NC(Cc2ccccc2)C(=O)C(N)=O)c(-c2ccco2)n1 (stereo not drawn) [Compound 500, N-(4-amino-3,4-dioxo-1-phenylbutan-2-yl)-3-(furan-2-yl)-1-methyl-1H-pyrazole-4-carboxamide] | – | – | – | – | – | < 3 | < 10 | 10 to 25 | < 3 | < 3
15 | Cn1cc(C(=O)NC(Cc2ccccc2)C(=O)C(N)=O)c(-c2ccc3ncccc3c2)n1 (stereo not drawn) [Compound 593, N-(4-amino-3,4-dioxo-1-phenylbutan-2-yl)-1-methyl-3-(quinolin-6-yl)-1H-pyrazole-4-carboxamide] | – | – | – | – | – | < 3 | > 25 | > 25 | < 3 | < 3
